What was measured:
Format in all cases: in vivo
Conditions in all cases: foliar, compared to untreated control leaf disks, read-out: disease control
[1] = tested on: Blumeria graminis f. sp. tritici (Erysiphe graminis f. sp. tritici); assay: Blumeria graminis f. sp. tritici / wheat / leaf disc preventative (powdery mildew on wheat)
Summary of the method: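 Preventative leaf-disc test: compound (200 ppm) was sprayed onto cv. Kanzler wheat segments, which were dusted with conidia from infected plants 1 day after application. After incubation at 20° C and 60% rh, disease control relative to untreated segments was rated 6-8 days after application.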

Pyrenophora teres = Pyrenophora teres / barley / leaf disc preventative (net blotch)
Text: Pyrenophora teres/Barley/Leaf Disc Preventative (Net Blotch) Barley leaf segments cv. Hasso were placed on agar in a multiwell plate (24-well format) and sprayed with the formulated test compound diluted in water. The leaf segments were inoculated with a spore suspension of the fungus 2 days after application.

[2] = tested on: Puccinia recondita f. sp. tritici; assay: Puccinia recondita f. sp. tritici / wheat / leaf disc preventative (brown rust)
Text: Puccinia recondita f. sp. tritici/Wheat/Leaf Disc Preventative (Brown Rust) Wheat leaf segments cv. Kanzler were placed on agar in multiwell plates (24-well format) and sprayed with the formulated test compound diluted in water. The leaf disks were inoculated with a spore suspension of the fungus 1 day after application.

[3] = tested on: Puccinia recondita f. sp. tritici; assay: Puccinia recondita f. sp. tritici / wheat / leaf disc curative (brown rust)
Protocol: Puccinia recondita f. sp. tritici/Wheat/Leaf Disc Curative (Brown Rust) Wheat leaf segments cv. Kanzler are placed on agar in multiwell plates (24-well format). The leaf segments are inoculated with a spore suspension of the fungus. Plates were stored in darkness at 19° C. and 75% rh. The formulated test compound diluted in water was applied 1 day after inoculation.

Measured: pest or weed control at 200 ppm

CCN(C)/C=N/c1cc(Br)c(OCCCC(C)F)nc1C (stereo not drawn) [Q.052]
≥ 50%: all assays above

Cc1nc(OC2CCC3(CC2)OCCO3)c(Br)cc1/N=C/N(C)C [Q.054]
≥ 50%: all assays above

CC(=O)N1CCC(Oc2nc(C)c(/N=C/N(C)C)cc2Br)CC1 [Q.055]
≥ 50%: all assays above

C=CCCCOc1nc(C)c(/N=C/N(C)CC)cc1C [Q.057]
≥ 50%: all assays above

CCN(C)/C=N/c1cc(Br)c(OCCCC(O)CCl)nc1C (stereo not drawn) [Q.059]
≥ 50%: all assays above

CCN(C)/C=N/c1cc(Br)c(OC2Cc3cc(OC)c(OC)cc3C2)nc1C [Q.066]
≥ 50%: all assays above

CCN(C)/C=N/c1cc(C2CC2)c(OC2Cc3cc(OC)c(OC)cc3C2)nc1C [Q.069]
≥ 50%: all assays above

CCN(C)/C=N/c1cc(Br)c(O[C@H]2C[C@@H]3ON=C(C)[C@@H]3C2)nc1C [Q.070]
≥ 50%: all assays above

CCN(C)/C=N/c1cc(Br)c(OC2CCC(=C(Cl)Cl)CC2)nc1C (stereo not drawn) [Q.071]
≥ 50%: all assays above

CCN(C)/C=N/c1cc(Br)c(OC(C)c2cc(C)no2)nc1C (stereo not drawn) [Q.074]
≥ 50%: all assays above

CCN(C)/C=N/c1cc(Br)c(OC(C)c2cc(-c3ccccc3)no2)nc1C (stereo not drawn) [Q.075]
≥ 50%: all assays above

CCN(C)/C=N/c1cc(Br)c(OC(C)(C)c2cc(C)no2)nc1C [Q.076]
≥ 50%: all assays above

CCN(C)/C=N/c1cc(Br)c(OC2CCC(c3ccccc3)CC2)nc1C (stereo not drawn) [Q.082]
≥ 50%: all assays above

CCN(C)/C=N/c1cc(Br)c(OCc2ccccc2)nc1C [Q.095]
≥ 50%: all assays above

CCN(C)/C=N/c1cc(Br)c(OCc2ccc(Cl)cc2)nc1C [Q.097]
≥ 50%: all assays above

CCN(C)/C=N/c1cc(Br)c(OCCc2ccccc2)nc1C [Q.099]
≥ 50%: all assays above

CCN(C)/C=N/c1cc(Br)c(OCCCc2ccccc2)nc1C [Q.100]
≥ 50%: all assays above

CCN(C)/C=N/c1cc(Br)c(OCc2cccc(Br)c2)nc1C [Q.101]
≥ 50%: all assays above

CCN(C)/C=N/c1cc(Br)c(OC(C)c2ccccc2)nc1C (stereo not drawn) [Q.102]
≥ 50%: all assays above

CCN(C)/C=N/c1cc(Br)c(OCCCC(C)=C(C)C)nc1C [Q.103]
≥ 50%: all assays above

CCN(C)/C=N/c1cc(Br)c(OCc2cc(F)cc(F)c2)nc1C [Q.105]
≥ 50%: all assays above

CCN(C)/C=N/c1cc(Br)c(OCc2cccnc2)nc1C [Q.106]
≥ 50%: all assays above

CCN(C)/C=N/c1cc(Br)c(OC2CCc3ccccc3C2)nc1C (stereo not drawn) [Q.110]
≥ 50%: all assays above

CCN(C)/C=N/c1cc(Br)c(OCc2ccc(OC)nc2)nc1C [Q.115]
≥ 50%: all assays above

CCN(C)/C=N/c1cc(Br)c(OCCc2cccc(F)c2)nc1C [Q.116]
≥ 50%: all assays above

CCN(C)/C=N/c1cc(Br)c(OC(C)c2ccncc2)nc1C (stereo not drawn) [Q.117]
≥ 50%: all assays above

CCN(C)/C=N/c1cc(Br)c(OC2CCC(Cc3ccccc3)CC2)nc1C (stereo not drawn) [Q.119]
≥ 50%: all assays above

C=C(C)CCCOc1nc(C)c(/N=C/N(C)CC)cc1Br [Q.120]
≥ 50%: all assays above

CCN(C)/C=N/c1cc(Br)c(OCc2ccc(Cc3ccccc3)cc2)nc1C [Q.121]
≥ 50%: all assays above

CCN(C)/C=N/c1cc(Br)c(OC2CCC(=C(C)C)CC2)nc1C (stereo not drawn) [Q.122]
≥ 50%: all assays above

CCN(C)/C=N/c1cc(Br)c(OCc2snc(-c3ccc(F)cc3)c2Cl)nc1C [Q.124]
≥ 50%: all assays above

CCN(C)/C=N/c1cc(Br)c(OCCCc2ccc(F)cc2)nc1C [Q.131]
≥ 50%: all assays above

C/C=C(\C)CCCOc1nc(C)c(/N=C/N(C)CC)cc1Br [Q.133]
≥ 50%: all assays above

CCN(C)/C=N/c1cc(Br)c(OCc2ccc(C(F)(F)F)nc2)nc1C [Q.136]
≥ 50%: all assays above

CCN(C)/C=N/c1cc(Br)c(OC2CCC(C)CC2)nc1C (stereo not drawn) [Q.141]
≥ 50%: all assays above

CCN(C)/C=N/c1cc(Br)c(OCc2ccns2)nc1C [Q.143]
≥ 50%: all assays above

CCN(C)/C=N/c1cc(Br)c(OC2Cc3ccc(OCc4ccns4)cc3C2)nc1C (stereo not drawn) [Q.144]
≥ 50%: all assays above

CCCC(C)Oc1nc(C)c(/N=C/N(C)CC)cc1Br (stereo not drawn) [Q.146]
≥ 50%: all assays above

CCN(C)/C=N/c1cc(Br)c(OCCCCc2ccccc2)nc1C [Q.148]
≥ 50%: all assays above

CCN(C)/C=N/c1cc(Br)c(OCc2cccc(C#N)c2)nc1C [Q.155]
≥ 50%: all assays above

CCN(C)/C=N/c1cc(Br)c(OC2CCSCC2)nc1C [Q.158]
≥ 50%: all assays above

CCN(C)/C=N/c1cc(Br)c(OC2CCN(C(C)=O)CC2)nc1C [Q.160]
≥ 50%: all assays above

From patent US9326513B2, “Fungicidal compositions” (Syngenta Participations AG, priority 2011, dated 2016)
